Like-named read-outs stand apart in the source and are kept apart here.
Experiments:
Taxadiene Synthase (TDS) = target: T1, Taxadiene Synthase (TDS) (Taxus brevifolia, UniProt Q41594); assay: TDS activity by pyrophosphate assay; assay type: biochemical; settings: 30° C., pH 7.4
T1 construct: truncated first 60 amino acids, methionine added; made in house; host or cells: E. coli BL21 (DE3)
T1 sequence (Q41594 61-862 limits assumed): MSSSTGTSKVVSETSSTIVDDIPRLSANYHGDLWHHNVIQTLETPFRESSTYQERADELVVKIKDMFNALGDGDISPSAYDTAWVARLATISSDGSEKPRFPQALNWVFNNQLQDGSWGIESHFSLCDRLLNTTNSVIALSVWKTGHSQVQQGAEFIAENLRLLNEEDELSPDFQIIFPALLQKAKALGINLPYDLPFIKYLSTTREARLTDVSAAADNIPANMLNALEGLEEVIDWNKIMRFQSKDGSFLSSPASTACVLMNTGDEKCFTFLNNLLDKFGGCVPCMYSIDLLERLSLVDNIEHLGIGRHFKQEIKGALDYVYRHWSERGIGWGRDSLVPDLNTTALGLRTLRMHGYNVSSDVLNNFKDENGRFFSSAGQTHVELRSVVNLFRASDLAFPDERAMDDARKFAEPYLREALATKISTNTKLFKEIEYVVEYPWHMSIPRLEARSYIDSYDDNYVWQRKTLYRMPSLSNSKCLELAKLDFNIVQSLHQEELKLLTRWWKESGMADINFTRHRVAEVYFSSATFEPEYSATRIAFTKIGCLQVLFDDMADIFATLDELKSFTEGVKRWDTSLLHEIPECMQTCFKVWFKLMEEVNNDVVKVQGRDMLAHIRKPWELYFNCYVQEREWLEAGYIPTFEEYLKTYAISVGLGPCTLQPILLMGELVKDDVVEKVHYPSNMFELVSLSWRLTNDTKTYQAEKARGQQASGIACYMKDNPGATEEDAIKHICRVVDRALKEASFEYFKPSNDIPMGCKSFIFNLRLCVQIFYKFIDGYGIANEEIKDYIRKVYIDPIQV

IPK = target: T2, IPK (Arabidopsis thaliana, UniProt Q8H1F7); assay: Metabolic control analysis (lin-log elasticities) of multi-enzyme perturbation study; assay type: biochemical; settings: lin-log kinetics, 60 min, 5 mM isoprenol, 10 mM ATP
T2 construct: Arabidopsis thaliana (AAN12957.1), codon optimized; made in house; host or cells: E. coli BL21 (DE3)
T2 sequence (Q8H1F7 1-332): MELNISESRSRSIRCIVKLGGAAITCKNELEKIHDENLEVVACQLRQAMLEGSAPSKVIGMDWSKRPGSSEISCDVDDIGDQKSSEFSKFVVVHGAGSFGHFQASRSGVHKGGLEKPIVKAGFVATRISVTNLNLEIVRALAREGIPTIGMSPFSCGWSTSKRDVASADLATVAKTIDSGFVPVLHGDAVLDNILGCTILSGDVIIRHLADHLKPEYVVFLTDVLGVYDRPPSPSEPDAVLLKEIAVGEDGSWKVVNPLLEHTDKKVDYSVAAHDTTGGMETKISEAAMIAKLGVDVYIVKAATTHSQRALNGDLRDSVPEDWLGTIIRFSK
Method: (§1) In order to identify a PSS, an in vitro reaction was run, using the optimal enzyme concentrations, as predicted from the initial perturbation study, using a “main interactions only” linear regression model. A time profile of metabolic intermediate concentrations was constructed (FIG. 32). […] The reaction was stopped at 60 min in the repeat experiment.
(§2) [formula] where i represents the unit vector, v represents the relative flux compared to the reference state flux J^0, E^x0 represents the elasticity matrix for the metabolic intermediate concentrations (x^0) in relation to the enzyme concentration compared to the reference state as designed by e/e^0 and the relative intermediate metabolic concentrations compared to the reference state (x/x^0).
(§3) By applying this model to the data generated in the large perturbation study and alternating the designated reference state, 25 sets of elasticities were generated, using the maximum connectivity assumption to calculate the elasticity of every enzyme for each measured metabolite.

[1] = target: T3, isopentenyl phosphate kinase (IPK) (Arabidopsis thaliana, UniProt Q8H1F7); assay: IPK kinetics by ATP consumption, PK-LDH coupled NADH assay; assay type: biochemical; settings: 10 mM ATP, 30° C., pH 7.4
T3 construct: Arabidopsis thaliana (AAN12957.1), codon optimized; made in house; host or cells: E. coli BL21 (DE3)
T3 sequence (Q8H1F7 1-332): T2 sequence (Q8H1F7 1-332)
Method: A single colony from each strain containing one plasmid for the expression of a single enzyme was inoculated into 5 mL of sterile LB media (BD Sciences) with kanamycin and grown overnight at 37° C. One milliliter was then inoculated into a 1 L flask containing 200 mL of sterile SOB media (AMERSCO) with kanamycin. The culture was grown at 30° C. until an optical density (OD) of 0.4-0.6 (λ=600 nm). At this point protein production was induced by the addition of IPTG for a final concentration of 0.1 mM and continued at 30° C. for 3 h. Cells were harvested by centrifugation at 3750 rpm in an Allegra X12R centrifuge (Beckman-Coulter). The supernatant was removed and the cell pellets were frozen at −20° C. until purification. Proteins were visualized by SDS-PAGE performed accordingly to the manufacturer's guidelines (Bio-rad). Gradient (4-20%) gels were purchased from Biorad, as were the Kaleidoscope pre-stained protein ladder, Laemmli 4× sample buffer, Tris-glycine-SDS buffer, and mini-protean electrophoresis chambers. Gels were stained using Instant-Blue (Expedeon). Protein concentrations were very roughly estimated from the gel using Image J (NIH) in order to determine an appropriate amount of resin for purification. Protein Purification All purification steps were performed in a single day on ice and in a cold room when possible. Cell pellets were thawed and resuspended in 30 mL of NPI-10 buffer (50 mM NaH2PO4, 300 mM NaCl, 10 mM imidazole, pH 8.0) and supplemented with 0.5 mM PMSF immediately prior to cell lysis. Cells were lysed by 2-3 passages through an EmulsiFlex-C5 high-pressure homogenizer (Avestin). Lysates were then centrifuged at 4 C for 15 min to remove cellular debris. The clarified lysate was loaded onto a Ni-NTA resin (Gold Bio, capacity 50 mg/mL) which was housed in a gravity column (Thermofisher) and was pre-equilibrated with 10 column volumes (CV) of NPI-10 buffer. The column was then washed with 10 CV of NPI-20 buffer (20 mM imidazole). The enzyme was then eluted from the column by 3 CV using NPI-250 buffer (250 mM imidazole). Enzymes were then exchanged into 50 mM Tris-HCl pH 7.5 using 10 kDa Microseps (Millipore) by centrifugation and repeated buffer exchanges until the imidazole was calculated to be under 1 mM. […] Enzyme concentration was determined using a bicinchoninic acid (BCA) assay kit from Pierce using bovine serum albumin as a standard (BSA). […] The kinetics for CK were previously determined as described. The kinetics for IPK were determined by ATP consumption using a pyruvate kinase (PK) lactate dehydrogenase (LDH) coupled assay (FIGS. 16A & 16B). […] NADH was made fresh each time and the appropriate concentration was determined by constructing a standard curve using a SpectraMax M3 and selecting the highest value in the linear range. […]

CK = target: T4, CK (Saccharomyces cerevisiae, UniProt P20485); assay: Metabolic control analysis (lin-log elasticities) of multi-enzyme perturbation study; assay type: biochemical; settings: lin-log kinetics, 60 min, 5 mM isoprenol, 10 mM ATP
T4 construct: S. cerevisiae (AAA34499.1), codon optimized; made in house; host or cells: E. coli BL21 (DE3)
T4 sequence (P20485 1-582): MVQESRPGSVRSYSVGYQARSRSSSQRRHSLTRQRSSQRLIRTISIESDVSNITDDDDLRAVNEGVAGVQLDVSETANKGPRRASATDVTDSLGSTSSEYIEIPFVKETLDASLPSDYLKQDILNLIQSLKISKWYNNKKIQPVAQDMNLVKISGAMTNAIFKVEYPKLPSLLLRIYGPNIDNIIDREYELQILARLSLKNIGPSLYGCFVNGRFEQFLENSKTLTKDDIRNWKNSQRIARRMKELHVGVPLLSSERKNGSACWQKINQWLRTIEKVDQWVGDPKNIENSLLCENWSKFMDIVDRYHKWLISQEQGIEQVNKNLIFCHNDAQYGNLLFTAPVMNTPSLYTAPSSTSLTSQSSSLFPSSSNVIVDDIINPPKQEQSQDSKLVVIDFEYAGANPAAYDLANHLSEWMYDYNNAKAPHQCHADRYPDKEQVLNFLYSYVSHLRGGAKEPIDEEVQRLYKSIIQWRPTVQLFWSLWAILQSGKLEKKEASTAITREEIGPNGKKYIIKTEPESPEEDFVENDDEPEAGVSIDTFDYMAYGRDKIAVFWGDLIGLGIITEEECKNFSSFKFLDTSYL
Method: as §1, §2, §3

[2] = test system: Geranylgeranyl pyrophosphate synthase (GGPPS); settings: reported elsewhere (Hefner et al., 1998); cited from earlier work
[3] = target: Geranylgeranyl pyrophosphate synthase (GGPPS) (Taxus canadensis, UniProt Q9ZPM3); assay: GGPPS activity by pyrophosphate formation (EnzChek pyrophosphate assay); assay type: biochemical; settings: reaction IPP + FPP; IPP varied with FPP held at 100 μM
Sequence of Geranylgeranyl pyrophosphate synthase (GGPPS) (Taxus canadensis, UniProt Q9ZPM3) (Q9ZPM3 entry or part of it): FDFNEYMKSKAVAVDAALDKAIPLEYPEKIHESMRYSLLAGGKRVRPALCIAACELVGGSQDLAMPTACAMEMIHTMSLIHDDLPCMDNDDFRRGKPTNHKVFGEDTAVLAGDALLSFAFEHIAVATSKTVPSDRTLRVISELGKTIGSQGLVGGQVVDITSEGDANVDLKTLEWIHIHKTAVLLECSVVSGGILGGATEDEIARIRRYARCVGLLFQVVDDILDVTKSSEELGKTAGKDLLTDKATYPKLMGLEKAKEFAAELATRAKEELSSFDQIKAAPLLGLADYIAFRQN
Method: A single colony from each strain containing one plasmid for the expression of a single enzyme was inoculated into 5 mL of sterile LB media (BD Sciences) with kanamycin and grown overnight at 37° C. One milliliter was then inoculated into a 1 L flask containing 200 mL of sterile SOB media (AMERSCO) with kanamycin. The culture was grown at 30° C. until an optical density (OD) of 0.4-0.6 (λ=600 nm). At this point protein production was induced by the addition of IPTG for a final concentration of 0.1 mM and continued at 30° C. for 3 h. Cells were harvested by centrifugation at 3750 rpm in an Allegra X12R centrifuge (Beckman-Coulter). […] Enzymes were then exchanged into 50 mM Tris-HCl pH 7.5 using 10 kDa Microseps (Millipore) by centrifugation and repeated buffer exchanges until the imidazole was calculated to be under 1 mM. […] Enzyme concentration was determined using a bicinchoninic acid (BCA) assay kit from Pierce using bovine serum albumin as a standard (BSA). […] The kinetics for CK were previously determined as described. The kinetics for IPK were determined by ATP consumption using a pyruvate kinase (PK) lactate dehydrogenase (LDH) coupled assay (FIGS. 16A & 16B). […] NADH was made fresh each time and the appropriate concentration was determined by constructing a standard curve using a SpectraMax M3 and selecting the highest value in the linear range. […]

[4] = target: Farnesyl pyrophosphate synthase (IspA) (Escherichia coli, UniProt P22939); settings: Ref Ku et al., 2005, Weaver et al., 2015, cited from earlier work
Sequence of Farnesyl pyrophosphate synthase (IspA) (P22939 whole entry): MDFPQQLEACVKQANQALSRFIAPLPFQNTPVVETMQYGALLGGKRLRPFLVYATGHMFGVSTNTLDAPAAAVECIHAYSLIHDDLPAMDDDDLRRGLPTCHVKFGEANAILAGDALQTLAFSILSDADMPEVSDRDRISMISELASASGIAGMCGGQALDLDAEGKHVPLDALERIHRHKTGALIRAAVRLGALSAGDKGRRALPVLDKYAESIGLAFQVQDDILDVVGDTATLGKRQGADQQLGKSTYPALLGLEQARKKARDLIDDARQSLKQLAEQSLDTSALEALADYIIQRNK

In the case of CC(C)=CCC/C(C)=C/CC/C(C)=C/CC/C(C)=C/COP(=O)(O)OP(=O)(O)O [GGPP, geranylgeranyl diphosphate], the Km (Taxadiene Synthase (TDS)) is reported as 43 µM and the kcat (Taxadiene Synthase (TDS)) is reported as 23.1 S^−1.

For C=C(C)CCOP(=O)(O)O [IP, isopentenyl monophosphate], the “effect on IPK activity (elasticity)” value (IPK) was “stimulatory”, the Km [1] was 21.7 µM and the kcat [1] was 45.5 S^−1. The “effect on CK activity (elasticity)” value (CK) was “slightly inhibitory”.

In the case of C=C(C)CCO[P@@](=O)(O)OP(=O)(O)O [IPP, isopentenyl pyrophosphate], the Km [2] is given as 6 µM, the Km [3] is given as 13.5 µM and the Km ([4]; reaction IPP + DMAPP) is given as 29.3 µM. The Km ([4]; reaction IPP + GPP) was 5.5 µM.
